The test system of series [1] is primary human skin fibroblast. Kind of series: mRNA expression of fibrosis-related genes by real-time quantitative RT-PCR. The note with it: 1-300 nM, TGF-β 1 ng/mL, 24 h. It is filed as cell-based. As for the experimental part: Cells were allowed to adhere overnight before being replaced with serum-free FBM for 24 h. Serum-starved cells were first pretreated with samples in DMSO at concentrations between 1 and 300 nM for 30 min and then stimulated with 1 ng/mL TGF-β for 24 h. Then total RNA was collected from the cells by RNeasy 96 Kit (Qiagen, Valencia, CA, USA) and DNaseI (Qiagen) according to the manufacturer's protocol.
Total RNA was isolated from in vivo samples using ISOGEN II (Nippongene) according to the manufacturer's instructions. In vitro RNA samples were prepared as mentioned above. High Capacity cDNA Reverse Transcription Kit (Life Technologies, Carlsbad, CA, USA) was used for cDNA synthesis. Real-time quantitative RT-PCR reactions were performed as a TaqMan method on a ViiA 7 real-Time PCR System (Life Technologies), using TaqMan Fast Advanced Master Mix (Lifer Technologies) with specific primers on TaqMan Gene Expression Assays (Life Technologies) according to the manufacturer's manual. FAM-probed primers were used: COL1A1, Hs00164004_m1; α-SMA/ACTA2, Hs00426835_g1; fibroblast growth factor 2 (FGF2), Hs00266645_m1; Smad specific E3 ubiquitin protein ligase 2 (SMURF2), Hs00224203_m1; DDIT3, Hs00358796_g1; and glyceraldehyde 3-phosphate dehydrogenase (GAPDH), 4326317E for human in vitro cell assay. FAM-probed and TAMRA-quenched primers (Sigma-Aldrich Japan, Tokyo, Japan) were used: Col1a1, NM_007742; type I collagen alpha 2 (Col1a2), NM_007743; α-Sma/Acta2, NM_007392; and Gapdh, NM_008084 for mouse in vivo assay (S1 Table). The relative mRNA level of the target genes was calculated by the comparative threshold cycle (Ct) method using GAPDH (Gapdh) as an internal control for normalization. The fold change in the expression of each target gene was calculated by the following formula: relative quantification (RQ) = 2^-ΔΔCt.

Another series has as its system skin fibroblasts. Kind of series: Proline addition assay (α-SMA mRNA). It counts as cell-based, human. The note with it: proline 0.05, 0.2 and 1 mM; compound 1-300 nM; 24 h. As for the experimental part: Total RNA was isolated from in vivo samples using ISOGEN II (Nippongene) according to the manufacturer's instructions. In vitro RNA samples were prepared as mentioned above. High Capacity cDNA Reverse Transcription Kit (Life Technologies, Carlsbad, CA, USA) was used for cDNA synthesis. Real-time quantitative RT-PCR reactions were performed as a TaqMan method on a ViiA 7 real-Time PCR System (Life Technologies), using TaqMan Fast Advanced Master Mix (Lifer Technologies) with specific primers on TaqMan Gene Expression Assays (Life Technologies) according to the manufacturer's manual. […] The relative mRNA level of the target genes was calculated by the comparative threshold cycle (Ct) method using GAPDH (Gapdh) as an internal control for normalization. The fold change in the expression of each target gene was calculated by the following formula: relative quantification (RQ) = 2^-ΔΔCt.
To evaluate the effect of proline addition on anti-fibrosis by each compound, the cells were allowed to adhere overnight before being replaced with serum-free FBM for 24 h. […] Then real-time quantitative RT-PCR analysis was conducted as mentioned above.

Another series has as its system human skin fibroblast. Put plainly: Transcriptome analysis (AmpliSeq) and gene signature analysis. It is filed as cell-based. The note with it: 300 nM, 24 h; >1.2-fold change, FDR < 0.05. How it is done:
The Ion AmpliSeq Transcriptome Human Gene Expression Kit (ThermoFisher, Waltham, MA, USA) enables the simultaneous measurement of the expression levels of over 20,000 human genes in a single assay. AmpliSeq human-transcriptome libraries were constructed and sequenced by using the Ion Proton platform, according to the manufacturer’s instructions. Briefly, total RNA was extracted from human skin fibroblast treated with compounds for 24 h using the RNeasy Mini Kit. Reverse transcription was performed on 10 ng of the prepared total RNA samples using the AmpliSeq Whole Transcriptome primers with the included SuperScript® VILO^TM cDNA Synthesis kit (Life Technologies). Amplicons were ligated to adapters, and the resulting libraries were purified using Agencourt AMPure XP reagents (Beckman Coulter, Brea, CA, USA) and diluted to the concentration of 75 pM. Templated libraries were sequenced with the Ion Proton sequencer (ThermoFisher). AmpliSeq sequencing data were analyzed using the Ion Torrent Mapping Alignment Program. Identification of differentially expressed genes (DEGs) and comparative gene signature analysis were done in NextBio (http://nextbio.com). Gene expression data was taken by using our ATP-competitive PRS inhibitor analog (IC50: < 3.0 nM). […]

For series [2] the following is noted: mouse, in vivo.
Procedure: The experimenters were blinded to the treatments given to the animals and to the biochemical and histological analyses and the data analyses. Eight-week-old C3H/He male mice (weighing 23~28 g, Japan SLC, Inc., Hamamatsu, Japan) were used for all the in vivo experiments. […] These animals were maintained on a 12/12 h light/dark cycle with constant temperature (23 ± 2°C) under specific pathogen-free conditions. Standard chow diet and water were available ad libitum.
After acclimatization for 1 weeks, animals were randomly divided according to body weight and treated for 3 to 5 consecutive days as follows. The ear and dorsal skin of mouse were intradermally injected with 20 μL (100 μL, dorsal skin) PBS or 500 ng TGF-β in PBS under anaesthesia with 3–4% sevoflurane. Injections were continued in this manner daily for 3 days (days 0, 1 and 2) or 5 days (days 0, 1, 2, 3 and 4). Treatment protocol included the daily topical application of T-3833261 or HF cream on the ear (40 μL/ear) 1 h before injections into the ear. A vehicle without compounds was applied to control mice. The topical material contained sorbitan sesquioleate (50 g), lanolin (50 g), liquid paraffin (250 g), propylene glycol (50 g), 90% lactic acid (1.5 g), T-3833261 (0.1, 0.3 and 1 g) or HF (0.1 g), and distilled water as the rest material. Topical application of compound was continued for 7 days. Mice were euthanized by cervical dislocation under sevoflurane anesthesia at 3 or 5 days after last TGF-β injection and the ear surrounding the TGF-β injection site was harvested with 8 μm biopsy punch under anesthesia.
In the next series the target is 27 kinases. Kind of series: kinase panel experiment. It counts as biochemical. The note with it: almost no inhibitory activity, read-out: IC50 against 27 kinases.

Take `O=C(CC1NCCCC1O)Cn1cnc2cc(Br)c(Cl)cc2c1=O` (centres unmarked) [HF, Halofuginone, reference compound]: in series [1], the “COL1A1 mRNA expression” value is listed as “reduced to near the level of non-stimulated control”; the “DDIT3 mRNA expression” value was “dose-dependently increased DDIT3 expression”; the “FGF2 mRNA expression” value is “dose-dependently increased SMURF2 and FGF2 expressions”; the “SMURF2 mRNA expression” value was “dose-dependently increased SMURF2 and FGF2 expressions”. For the same compound, the “α-SMA mRNA expression” value in series [1] is given as “suppressed TGF-β-induced expression of α-SMA”. Besides, the “effect of proline addition on inhibition of α-SMA gene expression” value in the series on skin fibroblasts is “attenuated by adding proline to the medium”. Moreover, the “number of genes with altered expression levels compared to vehicle-treated cells” value with human skin fibroblast came to 8229 genes. Besides, in series [2], the “Body weight day 0” value turned out to be 22.5 ± 0.3 g, the “Body weight day 7” value is 23.7 ± 0.3 g and the “body weight of the mice after one week of continuous topical application” value is recorded as “did not change”.

One may read the IC50 as the concentration needed to halve the response being measured. For the compound `Cn1cc(-c2cc(F)cc(CNC(=O)c3nccc4nc(C5CCCC5)[nH]c34)c2)cn1` [T-3833261, 2-Cyclopentyl-N-(3-fluoro-5-(1-methyl-1H-pyrazol-4-yl)benzyl)-3H-imidazo[4,5-c]pyridine-4-carboxamide], the IC50 on 27 kinases was above 1000 nM. In series [1], the “COL1A1 mRNA expression” value is reported as “suppressed expression of these fibrotic genes”; the “DDIT3 mRNA expression” value is “dose-dependently increased DDIT3 expression”; the “FGF2 mRNA expression” value is “dose-dependently increased SMURF2 and FGF2 expressions”; the “SMURF2 mRNA expression” value was “dose-dependently increased SMURF2 and FGF2 expressions”. In addition, the “α-SMA mRNA expression” value in series [1] was “suppressed expression of these fibrotic genes”. Besides, the “effect of proline addition on inhibition of α-SMA gene expression” value in the series on skin fibroblasts is on record as “proline addition did not affect the activity”.
